From PubChem BioAssay (NCI)
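48-hour exposure; five concentrations; linearly interpolated endpoints. Definition used: TGI = concentration required for complete inhibition of growth.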

Legend:
Assay in all cases: NCI-60 cell line screen, 48 h
786-0 renal = system: 786-0 renal
A498 renal = system: A498 renal
A549 NSCLC = system: A549 NSCLC
ACHN renal = system: ACHN renal
BT-549 breast = system: BT-549 breast
CAKI-1 renal = system: CAKI-1 renal
CCRF-CEM leukemia = system: CCRF-CEM leukemia
COLO 205 colon = system: COLO 205 colon
DU-145 prostate = system: DU-145 prostate
EKVX NSCLC = system: EKVX NSCLC
HCC-2998 colon = system: HCC-2998 colon
HCT-116 colon = system: HCT-116 colon
HCT-15 colon = system: HCT-15 colon
HL-60(TB) leukemia = system: HL-60(TB) leukemia
HOP-62 NSCLC = system: HOP-62 NSCLC
HOP-92 NSCLC = system: HOP-92 NSCLC
HS 578T breast = system: HS 578T breast
HT29 colon = system: HT29 colon
IGROV1 ovarian = system: IGROV1 ovarian
K-562 leukemia = system: K-562 leukemia
KM12 colon = system: KM12 colon
LOX IMVI melanoma = system: LOX IMVI melanoma
M14 melanoma = system: M14 melanoma
MALME-3M melanoma = system: MALME-3M melanoma
MCF7 breast = system: MCF7 breast
MDA-MB-231 breast = system: MDA-MB-231 breast
MDA-MB-435 = system: MDA-MB-435
MDA-N = system: MDA-N
MOLT-4 leukemia = system: MOLT-4 leukemia
NCI-H226 lung = system: NCI-H226 lung
NCI-H23 lung = system: NCI-H23 lung
NCI-H460 lung = system: NCI-H460 lung
NCI-H522 lung = system: NCI-H522 lung
NCI/ADR-RES ovarian = system: NCI/ADR-RES ovarian
OVCAR-3 ovarian = system: OVCAR-3 ovarian
OVCAR-4 ovarian = system: OVCAR-4 ovarian
OVCAR-5 ovarian = system: OVCAR-5 ovarian
OVCAR-8 ovarian = system: OVCAR-8 ovarian
PC-3 prostate = system: PC-3 prostate
RPMI-8226 leukemia = system: RPMI-8226 leukemia
RXF 393 renal = system: RXF 393 renal
SF-268 CNS = system: SF-268 CNS
SF-295 CNS = system: SF-295 CNS
SF-539 CNS = system: SF-539 CNS
SK-MEL-2 melanoma = system: SK-MEL-2 melanoma
SK-MEL-28 melanoma = system: SK-MEL-28 melanoma
SK-MEL-5 melanoma = system: SK-MEL-5 melanoma
SK-OV-3 ovarian = system: SK-OV-3 ovarian
SN12C renal = system: SN12C renal
SNB-19 CNS = system: SNB-19 CNS
SR leukemia = system: SR leukemia
SW-620 colon = system: SW-620 colon
T-47D breast = system: T-47D breast
TK-10 renal = system: TK-10 renal
U251 CNS = system: U251 CNS
UACC-257 melanoma = system: UACC-257 melanoma
UACC-62 melanoma = system: UACC-62 melanoma
UO-31 renal = system: UO-31 renal

C[C@H](CCC(=O)NN)[C@H]1CC[C@H]2[C@@H]3CC[C@@H]4C[C@H](O)CC[C@]4(C)[C@H]3CC[C@]12C
TGI (786-0 renal): > 100 µM
TGI (A498 renal): > 100 µM
TGI (A549 NSCLC): > 100 µM
TGI (ACHN renal): > 100 µM
TGI (BT-549 breast): > 100 µM
TGI (CAKI-1 renal): > 100 µM
TGI (CCRF-CEM leukemia): > 72.1 µM
TGI (COLO 205 colon): > 96 µM
TGI (DU-145 prostate): > 88.8 µM
TGI (EKVX NSCLC): > 100 µM
TGI (HCC-2998 colon): > 90.6 µM
TGI (HCT-116 colon): > 100 µM
TGI (HCT-15 colon): > 100 µM
TGI (HL-60(TB) leukemia): 37.6 µM
TGI (HOP-62 NSCLC): > 100 µM
TGI (HOP-92 NSCLC): > 100 µM
TGI (HS 578T breast): > 100 µM
TGI (HT29 colon): > 100 µM
TGI (IGROV1 ovarian): > 100 µM
TGI (K-562 leukemia): 41.1 µM
TGI (KM12 colon): > 100 µM
TGI (LOX IMVI melanoma): > 100 µM
TGI (M14 melanoma): 72.4 µM
TGI (MALME-3M melanoma): > 100 µM
TGI (MCF7 breast): 97.1 µM
TGI (MDA-MB-231 breast): > 100 µM
TGI (MDA-MB-435): > 100 µM
TGI (MDA-N): > 100 µM
TGI (MOLT-4 leukemia): > 52.7 µM
TGI (NCI-H226 lung): > 100 µM
TGI (NCI-H23 lung): > 100 µM
TGI (NCI-H460 lung): > 100 µM
TGI (NCI-H522 lung): > 70.1 µM
TGI (NCI/ADR-RES ovarian): > 100 µM
TGI (OVCAR-3 ovarian): > 100 µM
TGI (OVCAR-4 ovarian): > 100 µM
TGI (OVCAR-5 ovarian): > 100 µM
TGI (OVCAR-8 ovarian): > 100 µM
TGI (PC-3 prostate): > 100 µM
TGI (RPMI-8226 leukemia): 59.9 µM
TGI (RXF 393 renal): 67.2 µM
TGI (SF-268 CNS): > 100 µM
TGI (SF-295 CNS): > 100 µM
TGI (SF-539 CNS): > 100 µM
TGI (SK-MEL-2 melanoma): > 100 µM
TGI (SK-MEL-28 melanoma): > 100 µM
TGI (SK-MEL-5 melanoma): 56.4 µM
TGI (SK-OV-3 ovarian): > 100 µM
TGI (SN12C renal): > 100 µM
TGI (SNB-19 CNS): > 100 µM
TGI (SR leukemia): 62.2 µM
TGI (SW-620 colon): > 100 µM
TGI (T-47D breast): > 100 µM
TGI (TK-10 renal): > 93.8 µM
TGI (U251 CNS): > 100 µM
TGI (UACC-257 melanoma): > 100 µM
TGI (UACC-62 melanoma): > 100 µM
TGI (UO-31 renal): > 100 µM
